Experimental data taken from patent publication US20230398130A1, “METHODS AND COMPOSITIONS FOR DIFFERENTIATING STEM CELLS” (Massachusetts Institute of Technology, priority 2020, published 2023).

Assays:
ISC-enriched organoids [1] = assay: Primary screen, 384-well 2.5-D organoid differentiation (ENR+CD, 6 days): basal lysozyme secretion (LYZ.NS); assay type: cell-based, murine; details: primary screen; for Dose.FC.LYZ.NS: FC vs plate median; for Z.LYZ.NS: standard z score; for SSMD.LYZ.NS: strictly standardized mean difference
Text: (§1) High-throughput screening.

ISC-enriched organoids [2] = assay: Primary screen, 384-well 2.5-D organoid differentiation (ENR+CD, 6 days, Target Selective Inhibitor Library, vs whole-plate median): ATP (CellTiter-Glo 3D, CTG); details: primary screen; for Dose.FC.CTG: FC vs plate median; for Z.CTG: standard z score; for SSMD.CTG: strictly standardized mean difference
ISC-enriched organoids [3] = assay: Primary screen, 384-well 2.5-D organoid differentiation (ENR+CD, 6 days): carbachol-induced lysozyme secretion (LYZ.S); assay type: cell-based, murine; details: primary screen; for Dose.FC.LYZ.S: FC vs plate median; for Z.LYZ.S: standard z score; for SSMD.LYZ.S: strictly standardized mean difference
Text: as §1

[4] = 1st of the 4 dose lines of the treatment (dose not given)
[5] = 2nd of the 4 dose lines of the treatment (dose not given)
[6] = 3rd of the 4 dose lines of the treatment (dose not given)
[7] = 4th of the 4 dose lines of the treatment (dose not given)

Row | Compound | Dose.FC.LYZ.NS (ISC-enriched organoids [1]; Dose 0.08 uM) [log 2 fold change] | Z.LYZ.NS (ISC-enriched organoids [1]; Dose 0.08 uM) | Dose.FC.LYZ.NS (ISC-enriched organoids [1]; Dose 0.40 uM) [log 2 fold change] | Z.LYZ.NS (ISC-enriched organoids [1]; Dose 0.40 uM) | Dose.FC.LYZ.NS (ISC-enriched organoids [1]; Dose 2.00 uM) [log 2 fold change] | Z.LYZ.NS (ISC-enriched organoids [1]; Dose 2.00 uM) | Dose.FC.LYZ.NS (ISC-enriched organoids [1]; Dose 10.00 uM) [log 2 fold change] | Z.LYZ.NS (ISC-enriched organoids [1]; Dose 10.00 uM) | SSMD.LYZ.NS (ISC-enriched organoids [1]; [4]) | SSMD.LYZ.NS (ISC-enriched organoids [1]; [5]) | SSMD.LYZ.NS (ISC-enriched organoids [1]; [6]) | SSMD.LYZ.NS (ISC-enriched organoids [1]; [7]) | Dose.FC.CTG (ISC-enriched organoids [2]; Dose 0.08 uM) [log 2 fold change] | Z.CTG (ISC-enriched organoids [2]; Dose 0.08 uM) | Dose.FC.CTG (ISC-enriched organoids [2]; Dose 0.40 uM) [log 2 fold change] | Z.CTG (ISC-enriched organoids [2]; Dose 0.40 uM) | Dose.FC.CTG (ISC-enriched organoids [2]; Dose 2.00 uM) [log 2 fold change] | Z.CTG (ISC-enriched organoids [2]; Dose 2.00 uM) | Dose.FC.CTG (ISC-enriched organoids [2]; Dose 10.00 uM) [log 2 fold change] | Z.CTG (ISC-enriched organoids [2]; Dose 10.00 uM) | also measured
1 | O=C(Nc1cc(C(F)(F)F)cc(C(F)(F)F)c1)c1cc(Cl)ccc1O [IMD 0354] | 0.004 | 0.035 | 0.101 | 0.880 | 0.097 | 0.847 | −0.089 | −0.777 | 0.021 | 0.439 | 0.612 | −0.729 | −0.007 | −0.017 | 0.117 | 0.280 | 0.076 | 0.181 | −0.480 | −1.146 | SSMD.CTG (ISC-enriched organoids [2]; [4]): −0.019; SSMD.CTG (ISC-enriched organoids [2]; [5]): 0.258; SSMD.CTG (ISC-enriched organoids [2]; [6]): 0.274; SSMD.CTG (ISC-enriched organoids [2]; [7]): −0.748; Dose.FC.LYZ.S (ISC-enriched organoids [3]; Dose 0.08 uM): −0.047 log 2 fold change; Dose.FC.LYZ.S (ISC-enriched organoids [3]; Dose 0.40 uM): 0.043 log 2 fold change; Dose.FC.LYZ.S (ISC-enriched organoids [3]; Dose 2.00 uM): 0.083 log 2 fold change; Dose.FC.LYZ.S (ISC-enriched organoids [3]; Dose 10.00 uM): −0.128 log 2 fold change; Z.LYZ.S (ISC-enriched organoids [3]; [4]): −0.303; Z.LYZ.S (ISC-enriched organoids [3]; [5]): 0.281; Z.LYZ.S (ISC-enriched organoids [3]; [6]): 0.534; Z.LYZ.S (ISC-enriched organoids [3]; [7]): −0.826; SSMD.LYZ.S (ISC-enriched organoids [3]; [4]): −0.335; SSMD.LYZ.S (ISC-enriched organoids [3]; [5]): 0.203; SSMD.LYZ.S (ISC-enriched organoids [3]; [6]): 0.537; SSMD.LYZ.S (ISC-enriched organoids [3]; [7]): −0.736
2 | O=C(O)CNC(=O)c1c(O)c2ccccc2n(Cc2ccccc2)c1=O [IOX2] | 0.029 | 0.254 | 0.028 | 0.246 | 0.043 | 0.376 | −0.045 | −0.388 | 0.296 | 0.182 | 0.408 | −0.420 | 0.149 | 0.356 | 0.078 | 0.185 | 0.097 | 0.232 | 0.001 | 0.002 | SSMD.CTG (ISC-enriched organoids [2]; [4]): 0.501; SSMD.CTG (ISC-enriched organoids [2]; [5]): 0.264; SSMD.CTG (ISC-enriched organoids [2]; [6]): 0.287; SSMD.CTG (ISC-enriched organoids [2]; [7]): 0.003; Dose.FC.LYZ.S (ISC-enriched organoids [3]; Dose 0.08 uM): 0.047 log 2 fold change; Dose.FC.LYZ.S (ISC-enriched organoids [3]; Dose 0.40 uM): 0.071 log 2 fold change; Dose.FC.LYZ.S (ISC-enriched organoids [3]; Dose 2.00 uM): 0.001 log 2 fold change; Dose.FC.LYZ.S (ISC-enriched organoids [3]; Dose 10.00 uM): −0.049 log 2 fold change; Z.LYZ.S (ISC-enriched organoids [3]; [4]): 0.305; Z.LYZ.S (ISC-enriched organoids [3]; [5]): 0.456; Z.LYZ.S (ISC-enriched organoids [3]; [6]): 0.005; Z.LYZ.S (ISC-enriched organoids [3]; [7]): −0.314; SSMD.LYZ.S (ISC-enriched organoids [3]; [4]): 0.359; SSMD.LYZ.S (ISC-enriched organoids [3]; [5]): 0.428; SSMD.LYZ.S (ISC-enriched organoids [3]; [6]): 0.006; SSMD.LYZ.S (ISC-enriched organoids [3]; [7]): −0.298
